# Where a name gives a salt, the structure may show the parent alone. Read-outs that look alike come from different tables or passages of the source.
# How the values were obtained:
# [1] = biological target: PI3Kγ (p110γ) Recombinant Human Protein (Homo sapiens (Human), UniProt P48736); assay: PI3K-γ Scintillation Proximity Assay; assay type: biochemical; details: read-out: PI3K-gamma SPA IC50
# Summary of the method: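 Radiometric SPA: reaction at room temperature for 120 min using 2 μM ATP with [γ-33P]ATP tracer, 20 μM PIP2 substrate and 13 nM human PI3Kγ (MOPS pH 6.7, MgCl2, DTT, CHAPS; 2% DMSO). EDTA quench with WGA beads, scintillation count, and IC50 fit of percent-of-control activity.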
# [2] = biological target: PI3Kδ (p110δ/p85α) Recombinant Human Protein (Homo sapiens (Human), UniProt O00329); assay: PI3Kδ Scintillation Proximity Assay; assay type: biochemical; details: read-out: PI3K-delta SPA IC50
# Summary of the method: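 Assay conditions: 2 μM ATP (radiolabelled), 20 μM PIP2, 3.4 nM PI3Kδ, 20 mM MOPS pH 6.7 with 10 mM MgCl2, 5 mM DTT, 0.03% CHAPS, 2 h at room temperature. Signal from bead-captured 33P product; IC50 versus solvent control.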
# [3] = tested on: Phosphorylated Ribosomal Protein S6 (RPS6) in THP-1 cells; assay: THP-1 RPS6 ELISA Assay; assay type: cell-based, Human; details: MCP-1 stimulated, phospho-RPS6 ELISA, read-out: THP p-RPS6 ELISA IC50
# Summary of the method: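 Phospho-RPS6 in lysates measured by ELISA at 450 nm, corrected at 540 nm, after MCP-1 challenge (10 nM, 15 min) of THP-1 cells that were starved overnight and exposed to test compound for 2 h at 37° C, 2×10^5 cells/well. Curve fit of percent inhibition gives IC50.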
# PI3Kδ (p110δ/p85α) Recombinant Human Protein, sequence (O00329 whole entry): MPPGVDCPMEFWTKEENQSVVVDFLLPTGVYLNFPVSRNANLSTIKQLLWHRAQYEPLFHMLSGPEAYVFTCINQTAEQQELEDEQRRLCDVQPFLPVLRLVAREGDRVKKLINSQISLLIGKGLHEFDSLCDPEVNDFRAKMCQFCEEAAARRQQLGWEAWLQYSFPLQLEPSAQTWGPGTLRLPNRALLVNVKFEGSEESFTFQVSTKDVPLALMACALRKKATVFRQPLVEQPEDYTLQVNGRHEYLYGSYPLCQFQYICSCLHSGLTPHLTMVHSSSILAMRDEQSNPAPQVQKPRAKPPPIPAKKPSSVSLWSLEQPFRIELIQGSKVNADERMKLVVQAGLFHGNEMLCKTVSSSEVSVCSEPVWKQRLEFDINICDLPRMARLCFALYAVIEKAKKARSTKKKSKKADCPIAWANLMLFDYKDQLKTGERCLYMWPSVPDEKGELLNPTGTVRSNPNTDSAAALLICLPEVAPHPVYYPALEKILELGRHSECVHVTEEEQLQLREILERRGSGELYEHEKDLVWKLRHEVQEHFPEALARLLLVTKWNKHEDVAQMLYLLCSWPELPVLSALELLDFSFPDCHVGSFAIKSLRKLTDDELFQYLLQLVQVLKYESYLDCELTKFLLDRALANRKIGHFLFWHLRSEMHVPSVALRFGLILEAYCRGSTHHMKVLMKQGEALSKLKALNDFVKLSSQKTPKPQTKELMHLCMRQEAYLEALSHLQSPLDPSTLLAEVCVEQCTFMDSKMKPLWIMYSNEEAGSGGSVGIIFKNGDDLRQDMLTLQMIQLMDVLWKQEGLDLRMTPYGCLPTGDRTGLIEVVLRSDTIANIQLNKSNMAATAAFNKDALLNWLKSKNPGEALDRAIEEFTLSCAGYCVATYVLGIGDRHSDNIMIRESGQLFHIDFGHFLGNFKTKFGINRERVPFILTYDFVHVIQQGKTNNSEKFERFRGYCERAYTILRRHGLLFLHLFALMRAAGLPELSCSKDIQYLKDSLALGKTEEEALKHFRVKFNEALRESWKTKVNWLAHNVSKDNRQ
# PI3Kδ (p110δ/p85α) Recombinant Human Protein, sequence (P27986 whole entry partner): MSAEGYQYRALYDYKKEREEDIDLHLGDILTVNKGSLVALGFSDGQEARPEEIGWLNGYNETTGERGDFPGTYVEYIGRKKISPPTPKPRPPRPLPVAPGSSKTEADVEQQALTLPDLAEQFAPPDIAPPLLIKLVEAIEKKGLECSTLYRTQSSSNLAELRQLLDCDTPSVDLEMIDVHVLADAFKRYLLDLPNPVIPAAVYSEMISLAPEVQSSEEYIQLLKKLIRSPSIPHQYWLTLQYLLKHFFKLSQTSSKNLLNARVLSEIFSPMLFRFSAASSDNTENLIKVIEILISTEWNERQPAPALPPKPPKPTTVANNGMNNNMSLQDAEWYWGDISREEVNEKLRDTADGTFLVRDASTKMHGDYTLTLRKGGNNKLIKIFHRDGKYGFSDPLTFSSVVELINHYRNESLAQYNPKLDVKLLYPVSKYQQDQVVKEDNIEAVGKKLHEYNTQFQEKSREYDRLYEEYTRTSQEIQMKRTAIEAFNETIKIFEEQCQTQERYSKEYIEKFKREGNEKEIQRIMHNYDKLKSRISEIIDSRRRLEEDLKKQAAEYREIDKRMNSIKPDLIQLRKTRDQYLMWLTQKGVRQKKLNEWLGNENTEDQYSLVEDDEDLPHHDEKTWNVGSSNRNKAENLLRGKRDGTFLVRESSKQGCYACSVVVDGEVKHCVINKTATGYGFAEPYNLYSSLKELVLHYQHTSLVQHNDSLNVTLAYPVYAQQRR
# PI3Kγ (p110γ) Recombinant Human Protein, sequence (P48736 whole entry): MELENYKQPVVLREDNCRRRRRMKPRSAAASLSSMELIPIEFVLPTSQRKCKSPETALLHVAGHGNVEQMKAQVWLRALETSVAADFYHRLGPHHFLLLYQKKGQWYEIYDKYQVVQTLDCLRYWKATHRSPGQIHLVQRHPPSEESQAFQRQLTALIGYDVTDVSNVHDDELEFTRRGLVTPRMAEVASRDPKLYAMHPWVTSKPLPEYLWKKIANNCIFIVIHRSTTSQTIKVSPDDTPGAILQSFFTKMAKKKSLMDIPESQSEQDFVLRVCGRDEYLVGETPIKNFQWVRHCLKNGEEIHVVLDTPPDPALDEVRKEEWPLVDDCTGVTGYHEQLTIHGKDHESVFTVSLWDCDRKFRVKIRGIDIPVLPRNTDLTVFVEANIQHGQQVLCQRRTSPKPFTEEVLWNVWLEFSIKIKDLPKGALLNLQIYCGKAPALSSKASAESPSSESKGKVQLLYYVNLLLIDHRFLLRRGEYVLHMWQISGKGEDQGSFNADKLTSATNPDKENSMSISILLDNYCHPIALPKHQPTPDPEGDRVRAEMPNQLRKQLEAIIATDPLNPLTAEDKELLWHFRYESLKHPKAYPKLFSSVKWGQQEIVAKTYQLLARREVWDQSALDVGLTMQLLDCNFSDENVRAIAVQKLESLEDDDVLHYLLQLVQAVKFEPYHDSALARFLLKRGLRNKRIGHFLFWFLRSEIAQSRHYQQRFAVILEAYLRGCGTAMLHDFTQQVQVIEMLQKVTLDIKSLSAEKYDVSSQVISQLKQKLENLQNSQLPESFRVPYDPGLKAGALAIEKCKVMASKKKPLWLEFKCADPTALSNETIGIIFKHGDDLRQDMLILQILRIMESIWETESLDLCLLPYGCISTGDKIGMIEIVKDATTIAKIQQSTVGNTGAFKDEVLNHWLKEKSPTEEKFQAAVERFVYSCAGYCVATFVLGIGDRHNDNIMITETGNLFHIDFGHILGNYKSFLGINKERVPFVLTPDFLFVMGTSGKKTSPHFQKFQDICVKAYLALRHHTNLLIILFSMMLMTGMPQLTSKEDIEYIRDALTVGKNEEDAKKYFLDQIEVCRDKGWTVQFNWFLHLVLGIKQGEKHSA
smiles,measurement,setting,value
"Cc1[nH]c(-c2cc(-c3cncc(N4CCOCC4)c3)ccn2)nc1CO [Example 122, [5-Methyl-2-(5-morpholin-4-yl-3,4′-bipyridin-2′-yl)-1H-imidazol-4-yl]methanol]",IC50,[1],≤ 0.5 µM
same,IC50,[2],≤ 0.5 µM
same,IC50,[3]; Homo sapiens,1 to 5 µM
"Cc1[nH]c(-c2cc(-c3cncc(N4CCOCC4)c3)ccn2)nc1C(=O)N[C@@H](C)c1ccccc1 [Example 273, 5-Methyl-2-(5-morpholin-4-yl-3,4′-bipyridin-2′-yl)-N-[(1S)-1-phenylethyl]-1H-imidazole-4-carboxamide trifluoroacetate salt]",IC50,[1],≤ 0.05 µM
same,IC50,[2],≤ 0.05 µM
same,IC50,[3]; Homo sapiens,≤ 0.3 µM
"COc1cncc(-c2ccnc(-c3nc(C)c(-c4ccccc4)[nH]3)c2)c1 [Example 82, 5-Methoxy-2′-(4-methyl-5-phenyl-1H-imidazol-2-yl)-3,4′-bipyridine trifluoroacetate salt]",IC50,[1],≤ 0.05 µM
same,IC50,[2],≤ 0.05 µM
same,IC50,[3]; Homo sapiens,> 5 µM
"Clc1ccccc1Cn1cc(-c2ccnc(-c3ncc(-c4ccccc4)[nH]3)c2)cn1 [Example 7, 4-(1-(2-Chlorobenzyl)-1H-pyrazol-4-yl)-2-(5-phenyl-1H-imidazol-2-yl)pyridine trifluoroacetate salt]",IC50,[1],≤ 0.1 µM
same,IC50,[2],≤ 0.5 µM
same,IC50,[3]; Homo sapiens,> 5 µM
"Cc1nc(-c2cc(-c3cncc(C(=O)N4CC[C@@H](O)C4)c3)ccn2)[nH]c1C [Example 163, (R)-(2′-(4,5-Dimethyl-1H-imidazol-2-yl)-3,4′-bipyridin-hydroxypyrrolidin-1-yl)methanone trifluoroacetate salt]",IC50,[1],≤ 0.05 µM
same,IC50,[2],≤ 0.05 µM
same,IC50,[3],≤ 0.3 µM
"Cc1nc(-c2cc(-c3cncc(C(=O)N4CCC(c5ccccc5)CC4)c3)ccn2)[nH]c1C [Example 186, 2′-(4,5-Dimethyl-1H-imidazol-2-yl)-5-[(4-phenylpiperidin-1-yl)carbonyl]-3,4′-bipyridine trifluoroacetate salt]",IC50,[1],≤ 0.05 µM
same,IC50,[2],≤ 0.05 µM
same,IC50,[3]; Homo sapiens,≤ 0.3 µM
"Cc1[nH]c(-c2cc(-c3cncc(N4CCOCC4)c3)ccn2)nc1C(=O)NCc1ccccc1 [Example 272, N-Benzyl-5-methyl-2-(5-morpholin-4-yl-3,4′-bipyridin-2′-yl)-1H-imidazole-4-carboxamide trifluoroacetate salt]",IC50,[1],≤ 0.05 µM
same,IC50,[2],≤ 0.05 µM
same,IC50,[3]; Homo sapiens,≤ 0.3 µM
"Cc1nc(-c2cc(-c3cncc(NC(C)c4ccccc4)c3)ccn2)[nH]c1C (racemic) [Example 145C, 2′-(4,5-Dimethyl-1H-imidazol-2-yl)-N-(1-phenylethyl)-3,4′-bipyridin-5-amine trifluoroacetate salt]",IC50,[1],≤ 0.05 µM
same,IC50,[2],≤ 0.05 µM
same,IC50,[3]; Homo sapiens,≤ 0.3 µM
"Cc1nc(-c2cc(-c3cncc(C(=O)N4CCC4C(F)(F)F)c3)ccn2)[nH]c1C (racemic) [Example 184, 2′-(4,5-Dimethyl-1H-imidazol-2-yl)-5-{[2-(trifluoromethyl)azetidin-1-yl]carbonyl}-3,4′-bipyridine trifluoroacetate salt]",IC50,[1],≤ 0.05 µM
same,IC50,[2],≤ 0.05 µM
same,IC50,[3]; Homo sapiens,0.3 to 1 µM
"CCN(C)C(=O)c1cncc(-c2ccnc(-c3nc(C)c(C)[nH]3)c2)c1 [Example 198, 2′-(4,5-Dimethyl-1H-imidazol-2-yl)-N-ethyl-N-methyl-3,4′-bipyridine-5-carboxamide trifluoroacetate salt]",IC50,[1],≤ 0.05 µM
same,IC50,[2],≤ 0.05 µM
same,IC50,[3]; Homo sapiens,0.3 to 1 µM
"CC(=O)N1CCN(C(=O)c2cncc(-c3ccnc(-c4nc(C)c(C)[nH]4)c3)c2)CC1 [Example 159, 1-(4-(2′-(4,5-Dimethyl-1H-imidazol-2-yl)-3,4′-bipyridine-5-carbonyl)piperazin-1-yl)ethanone trifluoroacetate salt]",IC50,[1],≤ 0.05 µM
same,IC50,[2],≤ 0.1 µM
same,IC50,[3]; Homo sapiens,1 to 5 µM
"CNC(=O)c1nc(-c2cc(-c3cncc(S(C)(=O)=O)c3)ccn2)[nH]c1C [Example 250, N,5-Dimethyl-2-[5-(methylsulfonyl)-3,4′-bipyridin-2′-yl]-lH-imidazole-4-carboxamide trifluoroacetate salt]",IC50,[1],≤ 0.05 µM
same,IC50,[2],≤ 0.05 µM
same,IC50,[3],0.3 to 1 µM
"Cc1nc(-c2cc(C3=CCCN(S(=O)(=O)c4ccccc4)C3)ccn2)[nH]c1C [Example 214, 2′-(4,5-Dimethyl-1H-imidazol-2-yl)-1-(phenylsulfonyl)-1,2,5,6-tetrahydro-3,4′-bipyridine Trifluoroacetate Salt]",IC50,[1],≤ 0.05 µM
same,IC50,[2],≤ 0.5 µM
same,IC50,[3]; Homo sapiens,> 5 µM
"Cc1nc(-c2cc(-c3cncc(C(=O)N4C[C@H](CO)[C@@H](C)C4)c3)ccn2)[nH]c1C [Example 172, ((3R,4R)-1-{[2′-(4,5-Dimethyl-1H-imidazol-2-yl)-3,4′-bipyridin-5-yl]carbonyl}-4-methylpyrrolidin-3-yl)methanol trifluoroacetate salt]",IC50,[1],≤ 0.05 µM
same,IC50,[2],≤ 0.05 µM
same,IC50,[3]; Homo sapiens,0.3 to 1 µM
"CS(=O)(=O)c1cncc(-c2ccnc(-c3ncc(C4CCCC4)[nH]3)c2)c1 [Example 114, 2′-(5-Cyclopentyl-1H-imidazol-2-yl)-5-(methylsulfonyl)-3,4′-bipyridine trifluoroacetate salt]",IC50,[1],≤ 0.05 µM
same,IC50,[2],≤ 0.05 µM
same,IC50,[3]; Homo sapiens,≤ 0.3 µM
"Cc1nc(-c2cc(-c3cncc(C4=CCN(S(C)(=O)=O)C4)c3)ccn2)[nH]c1C [Example 237, 2′-(4,5-Dimethyl-1H-imidazol-2-yl)-5-[1-(methylsulfonyl)-2,5-dihydro-1H-pyrrol-3-yl]-3,4′-bipyridine]",IC50,[1],≤ 0.05 µM
same,IC50,[2],≤ 0.05 µM
same,IC50,[3]; Homo sapiens,≤ 0.3 µM
"CCNC(=O)c1nc(-c2cc(-c3cncc(S(C)(=O)=O)c3)ccn2)[nH]c1C [Example 252, N-Ethyl-5-methyl-2-[5-(methylsulfonyl)-3,4′-bipyridin-2′-yl]-1H-imidazole-4-carboxamide trifluoroacetate salt]",IC50,[1],≤ 0.05 µM
same,IC50,[2],≤ 0.05 µM
same,IC50,[3]; Homo sapiens,≤ 0.3 µM
"O=C(Nc1cncc(-c2ccnc(-c3ncc(-c4ccccc4)[nH]3)c2)c1)C1CCCC1 [Example 138, N-(2′-(5-Phenyl-1H-imidazol-2-yl)-3,4′-bipyridin-5-yl)cyclopentanecarboxamide]",IC50,[1],≤ 0.5 µM
same,IC50,[2],≤ 0.1 µM
same,IC50,[3]; Homo sapiens,> 5 µM
"N#Cc1ccccc1Cn1cc(-c2ccnc(-c3ncc(-c4ccccc4)[nH]3)c2)cn1 [Example 6, 2-((4-(2-(5-Phenyl-1H-imidazol-2-yl)pyridin-4-yl)-1H-pyrazol-1-yl)methyl)benzonitrile trifluoroacetate salt]",IC50,[1],≤ 0.1 µM
same,IC50,[2],≤ 0.5 µM
same,IC50,[3]; Homo sapiens,> 5 µM
"Cc1[nH]c(-c2cc(-c3cncc(N4CCOCC4)c3)ccn2)nc1C(=O)NC1Cc2ccccc2C1 [Example 282, N-(2,3-Dihydro-1H-inden-2-yl)-5-methyl-2-(5-morpholin-4-yl-3,4′-bipyridin-2′-yl)-1H-imidazole-4-carboxamide trifluoroacetate salt]",IC50,[1],≤ 0.05 µM
same,IC50,[2],≤ 0.05 µM
same,IC50,[3]; Homo sapiens,0.3 to 1 µM
"Cc1nc(-c2cc(-c3cncc(C(=O)NCC4CCCC4)c3)ccn2)[nH]c1C [Example 207, N-(Cyclopentylmethyl)-2′-(4,5-dimethyl-1H-imidazol-2-yl)-3,4′-bipyridine-5-carboxamide trifluoroacetate salt]",IC50,[1],≤ 0.05 µM
same,IC50,[2],≤ 0.5 µM
same,IC50,[3]; Homo sapiens,1 to 5 µM
"COC[C@H](NC(=O)c1nc(-c2cc(-c3cncc(N4CCOCC4)c3)ccn2)[nH]c1C)c1ccccc1 [Example 275, N-[(1R)-2-Methoxy-1-phenylethyl]-5-methyl-2-(5-morpholin-4-yl-3,4′-bipyridin-2′-yl) 1H-imidazole-4-carboxamide trifluoroacetate salt]",IC50,[1],≤ 0.05 µM
same,IC50,[2],≤ 0.05 µM
same,IC50,[3],≤ 0.3 µM
Cc1[nH]c(-c2cc(-c3cnn(Cc4ccc(Cl)cc4)c3)ccn2)nc1C(=O)N[C@H]1CCOC1 [Example 295],IC50,[1],≤ 0.05 µM
same,IC50,[2],≤ 0.5 µM
same,IC50,[3]; Homo sapiens,1 to 5 µM
"COC1CCN(C(=O)c2cncc(-c3ccnc(-c4nc(C)c(C)[nH]4)c3)c2)C1 (racemic) [Example 174, 2′-(4,5-Dimethyl-1H-imidazol-2-yl)-5-[(3-methoxypyrrolidin-1-yl)carbonyl]-3,4′-bipyridine trifluoroacetate salt]",IC50,[1],≤ 0.05 µM
same,IC50,[2],≤ 0.05 µM
same,IC50,[3]; Homo sapiens,≤ 0.3 µM
"c1ccc(-c2cnc(-c3cc(-c4cncc(NC5CCOCC5)c4)ccn3)[nH]2)cc1 [Example 142, 2′-(5-Phenyl-1H-imidazol-2-yl)-N-(tetrahydro-2H-pyran-4-yl)-3,4′-bipyridin-5-amine trifluoroacetate salt]",IC50,[1],≤ 0.05 µM
same,IC50,[2],≤ 0.05 µM
same,IC50,[3]; Homo sapiens,> 5 µM
"Cc1cnc(-c2cc(-c3cncc(S(C)(=O)=O)c3)ccn2)[nH]1 [Example 107, 2′-(5-Methyl-1H-imidazol-2-yl)-5-(methylsulfonyl)-3,4′-bipyridine trifluoroacetate salt]",IC50,[1],≤ 0.1 µM
same,IC50,[2],≤ 0.1 µM
same,IC50,[3]; Homo sapiens,≤ 0.3 µM
"O=S(=O)(C1CCCC1)n1cc(-c2ccnc(-c3ncc(-c4ccccc4)[nH]3)c2)cn1 [Example 54, 4-(1-(Cyclopentylsulfonyl)-1H-pyrazol-4-yl)-2-(5-phenyl-1H-imidazol-2-yl)pyridine trifluoroacetate salt]",IC50,[1],≤ 0.1 µM
same,IC50,[2],≤ 0.1 µM
same,IC50,[3]; Homo sapiens,> 5 µM
